Series [1] in a line: Nasal administration of insulin with peptides of SEQ ID NOs:1 to 6 (Example 5). The note with it: for AAC: blood glucose reduction. The source says:
The prepared solutions were subjected to the evaluation in the same manner as in Example 1.

Series [2] is described as follows: Nasal administration of insulin, dependency on peptide concentration (Example 2). The note with it: rats, only insulin, no peptide.
Method: (§1) Male SD rats having a body weight of about 200 g were fasted for 24 hours and anesthetized by intraperitoneal injection of 50 mg/kg of pentobarbital, followed by incision of the cervical part to expose trachea. […] The tip of the tube to be inserted into the choanae was preliminarily tightly sealed with absorbent cotton and an adhesive. To prevent leakage of the drug solution, the nasopalatine duct in maxilla opening into the oral cavity was closed with a synthetic adhesive (Aron Alpha A; manufactured by Daiichi Sankyo Company, Limited).
Series [3] can be described thus: Nasal administration of insulin with peptide to rats (Example 1). Type of series: in vivo, rat. As to conditions: male SD rats, insulin 10 IU/kg with 0.5 mM peptide or insulin only.
Method: as §1
[4] abbreviates: rats, nasal, insulin 1 IU/kg with 0.5 mM L-amino acid peptide or no peptide.
The mark [5] stands for this setting: blood insulin, rats, nasal, insulin 1 IU/kg with 0.5 mM L-amino acid peptide or no peptide.
Setting [6] is: male, SD, rat, in vivo, inhaled or intranasal.

Where no end group is shown, it is not given here.

Turning to `CC[C@H](C)[C@H](NC(=O)[C@H](CCCCN)NC(=O)[C@@H](NC(=O)[C@H](CCC(N)=O)NC(=O)[C@@H](N)CCCNC(=N)N)[C@@H](C)CC)C(=O)N[C@@H](Cc1c[nH]c2ccccc12)C(=O)N[C@@H](Cc1ccccc1)C(=O)N[C@@H](CCC(N)=O)C(=O)N[C@@H](CC(N)=O)C(=O)N[C@@H](CCCNC(=N)N)C(=O)N[C@@H](CCCNC(=N)N)C(=O)N[C@@H](CCSC)C(=O)N[C@@H](CCCCN)C(=O)N[C@@H](Cc1c[nH]c2ccccc12)C(=O)N[C@@H](CCCCN)C(=O)N[C@@H](CCCCN)C(=O)N[C@@H](CCCNC(=N)N)C(=O)N[C@@H](CCCNC(=N)N)C(=O)N[C@@H](CCCNC(=N)N)C(=O)N[C@@H](CCCNC(=N)N)C(=O)O` [SEQ ID NO: 6], in series [1] (setting [4]), the AAC is 14.4 % glu. reduc. h and the “PA (pharmaceutical availability, based on changes in blood glucose level)” value stood at 15.7%. In series [1] (setting [5]), this molecule showed an AUC of 55.2 μU · h./mL and a Cmax of 187.3 μU/mL.
On to KKWKMRRNQFWIKIQR-OH [SEQ ID NO: 2], for which, in series [1] (setting [4]), the AAC was found to be 13.5 % glu. reduc. h and the “PA (pharmaceutical availability, based on changes in blood glucose level)” value was determined as 14.7%. Also, the Tmax in series [1] (setting [6]) amounted to 11.7 min.
The like results for KQIKIWFQNKKMKWKK-OH [SEQ ID NO: 4] were, in that order, 10.3 % glu. reduc. h, 11.2% and 11.3 min.
The like results for KQIRIWFQNKKMRWRR-OH [SEQ ID NO: 5] were, in that order, 21.5 % glu. reduc. h, 23.4% and 16.0 min.
The like results for RQIRIWFQNRRMRWRR-OH [SEQ ID NO: 3] were, in that order, 17.1 % glu. reduc. h, 18.6% and 18.3 min.
insulin [reference compound]: the bioavailability of insulin in series [2] was determined as 1.7%. The “blood insulin level (FIG. 1)” value in series [3] was “hardly exhibited increase in the blood insulin level”. Besides, the “bioavailability (BA) of insulin” value in series [3] (vs subcutaneous insulin) was 0.8%. Besides, in series [1] (setting [4]), the AAC is reported as 4.3 % glu. reduc. h; the “BA (bioavailability, based on changes in blood insulin level)” value turned out to be 2.3%; the “PA (pharmaceutical availability, based on changes in blood glucose level)” value was determined as 4.7%; the “increase in the blood insulin level (FIG. 8)” value was “could be hardly observed”. In addition, in series [1] (setting [5]), the AUC came to 6.4 μU · h./mL and the Tmax was 10.8 min.

The values above are taken from patent publication US8895503B2, “Pharmaceutical composition for transnasal administration of peptide hormones or cytokines” (Toray Industries, Inc., priority 2008, dated 2014).
